Data from US20100035822A1, “PROLINE-RICH PEPTIDES, PHARMACEUTICAL COMPOSITION, USE OF ONE OR MORE PEPTIDES AND METHOD OF TREATMENT” (priority 2006, published 2010).
Square brackets hold non-standard residues; d marks the D form. Ends that are not written are not given here. pGlu = O=C1CC[C@@H](C(=O)O)N1

Legend:
[1] = tested on: renal nitric oxide synthase (NOS); assay: Activation of kidney NOS in mice (3H-arginine to 3H-citrulline conversion); type: in vivo, mouse; conditions: HOE 140 10 μg/Kg for 1 hour
Procedure: Male Swiss albinos weighing 22-25 g were injected intraperitoneally with: (1) 50 μl 0.9% NaCl (basal level control), or with 0.9% NaCl supplemented with LPS (2 mg/Kg) (positive control); (2) SEQ ID NO 8 (0.21, 0.91, and 3.47 mg/Kg); (3) SEQ ID NO 8 (0.91 mg/Kg) injected into animals pre-treated via intraperitoneally with L-NAME (3 mg/Kg for 1 h); (4) SEQ ID NO 8 (0.91 mg/Kg) injected into animals pre-treated via intraperitoneally with HOE140 (10 μg/Kg for 1 h); (5) captopril (0.21, 0.91, and 3.47 mg/Kg). After 5, 15, 30, 60, 120, and 180 min, animals were killed, their kidneys removed and stored at −70° C. Animals of group 3 and 4 were killed 30 minutes after administration of the oligopeptide.
NOS activity was measured according to Bredt and Snyder [Bredt D S and Snyder S H. Isolation of nitric oxide synthetase, a calmodulin-requiring enzyme. Proc. Natl. Acad. Sci. USA, 87, 682-685, 1990], and is based on estimating the enzymatic activity of the conversion of L-arginine into L-citrulline using ^3H-arginine as a reference for the conversion.
The kidneys were minced in homogenizing buffer, pH 7.4 (20 mM HEPES, 0.32 M saccharose, 1 mM DTT, 0.1 mM EDTA, 1 mM PMSF), and sonicated. Protein dosage was performed according to Bradford (1976), followed by a chromatography step in a 300 μL Dowex 50WX8-400 column.
For the enzymatic assay, 80 μg total protein from each sample were incubated for 60 minutes at 37° C. in 200 μL buffer (30 mM HEPES, 1 mM EDTA, 1.25 mM CaCl2, 1 mM NADPH, 10 μg/mL calmodulin, 4 μM FAD, 4 μM FMN, 25 μM BH4, 120 nM arginine, 0.5 μCi ^3H-arginine). The reaction was stopped by the addition of 1 ml 20 mM HEPES, and incubation in ice bath. ^3H-citrulline was separated from ^3H-arginine by ion-exchange chromatography in a 300 μL Dowex 50WX8-400 column. Radioactivity of the eluates was measured in a beta-counter. After converting cpm (counts per minute) into dpm (disintegration per minute), the specific activity of the nitric oxide synthase (NOS) was calculated using the following equation: […]

[2] = molecular target: T1, argininosuccinate synthase (AsS) (Mus musculus, UniProt P16460); assay: Affinity chromatography of mouse kidney extract on peptide column; identification of the bound protein; type: binding; conditions: affinity column with SEQ ID NO 7 as ligand; crude mouse kidney extract
T1 construct: Cytosolic and membrane fractions of the renal extract (100 mg/ml total protein) were applied to separate columns; from tissue; host or cells: Balb-c mouse kidney, cytosolic and membrane fractions
T1 sequence (P16460 1-412): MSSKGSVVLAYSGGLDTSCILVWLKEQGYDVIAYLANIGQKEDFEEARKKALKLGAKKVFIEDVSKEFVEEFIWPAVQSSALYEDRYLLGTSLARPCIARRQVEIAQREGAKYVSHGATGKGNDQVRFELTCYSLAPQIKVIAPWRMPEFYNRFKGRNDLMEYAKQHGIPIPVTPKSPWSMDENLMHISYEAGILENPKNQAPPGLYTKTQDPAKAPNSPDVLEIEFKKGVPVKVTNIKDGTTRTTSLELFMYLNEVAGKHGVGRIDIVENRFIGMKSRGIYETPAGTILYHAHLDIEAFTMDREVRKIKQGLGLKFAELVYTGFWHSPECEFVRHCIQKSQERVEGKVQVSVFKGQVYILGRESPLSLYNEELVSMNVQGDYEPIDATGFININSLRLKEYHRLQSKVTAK
Procedure: Starting material were the cytosolic and plasma membrane crude extracts of mouse kidney cells homogenized in the buffer 10 mM Tris-HCl pH 7.5, 25 mM saccharose, 1 mM EDTA, and 1 mM PMSF (cytosolic fraction), or 1% Triton X-100 (plasma membrane fraction). Supernatants were dialyzed in 0.2 M NaHCO3, 0.5 M NaCl, pH 8.3, and separately applied to the affinity chromatography column Hitrap NHS-activated (GE Healthcare) coupled to 5 mg of peptide SEQ ID NO 7.
Preparing affinity columns. Columns were washed three times with 2 ml 1 mM HCl before homogeneous preparations of SEQ ID NO 7 (5 mg in 1 ml 0.2 M NaHCO3, 0.5 M NaCl, pH 8.3) were applied. After 30 min incubation at room temperature, peptides had been coupled, and the column was inactivated with buffer A (0.5 M ethanolamine, 0.5 M NaCl, pH 8.3), and washed with 0.2 M NaHCO3, 0.5 M NaCl, pH 8.3, and stored at 4° C. in 50 mM Na2HPO4, 0.1%, NaN3, pH 7.0. The columns were called HiTrap-SEQ. ID NO 7. […]
Affinity chromatography and analysis of the retained proteins by SDS-PAGE. […] Protein concentration (mg/ml) was determined by the method of Bradford (Bradford, M. M. A rapid and sensitive method for the quantitation of microgram quantities of protein utilizing the principle of protein-dye binding. Anal. Biochem. 72: 248-254, 1976) with the Protein Assay reagent from BioRad. […]

[3] = tested on: SK-N-AS cells (human neuroblastoma); assay: Free intracellular Ca2+ concentration in SK-N-AS cells (fluo-3 AM, confocal microscopy); type: cell-based
Procedure: In these experiments the variation in free intracellular calcium [Ca^2+]i concentration was measured in SK-N-AS cells (human neuroblastoma, ATCC No. CRL-2137) after addition of 1 μmolar of peptides SEQ ID NO 1 or SEQ ID NO 8, or of 1 μmolar captopril. Cells were kept in DMEM (Dulbecco Modified Medium), supplemented with 10% fetal bovine serum (FBS) and 1% non-essential amino acids, at 5% CO2 atmosphere, at 37° C., and 95% relative humidity. Cells were treated with trypsin, and replicated at adequate cell concentrations.
Measurements of variation in the concentration of free [Ca^2+]i were performed with a confocal microscope LSM 510 (Zeiss, Jena, Germany), as described by Martins et al., (Martins et al., Neuronal differentiation of P19 embryonal carcinoma cells modulates kinin B2 receptor gene expression and function. J. Biol. Chem. 280: 19576-19586, 2005). Approximately 5×10^4 SK-N-AS cells were plated on 60 mm plates 24 hours prior to measurement, and then treated with 4 μM fluo-3 AM (Invitrogen Corporation) in 0.5% DMSO and 0.1% non-ionic surfactant pluronic acid F-127 for 30 minutes at 37° C. Cells were washed with DMEM containing 10% FBS, and transferred to defined medium (5 μg/ml insulin, 30 μg/ml transferrin, 20 μM ethanolamine, 30 nM sodium selenite, 1 μM sodium pyruvate, 1% non-essential amino acids, 1 mM glutamine, 100 μg/ml penicillin, 100 μg/ml streptomycin, 10 mM HEPES pH 7.4 in DMEM). The fluorescent fluo-3 AM was excited at 488 nm, and the fluorescence measured at 526 nm.
Variations in the [Ca^2+]i were measured in non-stimulated cells, and in cells stimulated with peptides SEQ ID NO 1 or SEQ ID NO 8, or with captopril (Sigma Aldrich). Increase of fluorescence was monitored for 2 minutes, and images were acquired in 256×256 pixels every second. At the end of each experiment, 5 μM ionophore (4-Br-A23187) were added, followed by 10 mM EGTA, or 20 μM digitonin to determine maximum and minimum fluorescence, Fmax and Fmin respectively, as described by Grynkiewicz et al., (1985).
Intracellular calcium concentrations [Ca^2+]i, related to fluorescence (F) values obtained after addition of peptides SEQ ID NO 1 or SEQ ID NO 8, were calculated with the equation: [Ca^2+]=Kd(F−Fmin)/(Fmax−F), assuming Kd=450 nM for fluo-3 AM (Hallett et al., 1990).

[4] = molecular target: T2, argininosuccinate synthase (AsS) (mouse, UniProt P16460 1-412); assay: cell-based or functional assay
T2 sequence: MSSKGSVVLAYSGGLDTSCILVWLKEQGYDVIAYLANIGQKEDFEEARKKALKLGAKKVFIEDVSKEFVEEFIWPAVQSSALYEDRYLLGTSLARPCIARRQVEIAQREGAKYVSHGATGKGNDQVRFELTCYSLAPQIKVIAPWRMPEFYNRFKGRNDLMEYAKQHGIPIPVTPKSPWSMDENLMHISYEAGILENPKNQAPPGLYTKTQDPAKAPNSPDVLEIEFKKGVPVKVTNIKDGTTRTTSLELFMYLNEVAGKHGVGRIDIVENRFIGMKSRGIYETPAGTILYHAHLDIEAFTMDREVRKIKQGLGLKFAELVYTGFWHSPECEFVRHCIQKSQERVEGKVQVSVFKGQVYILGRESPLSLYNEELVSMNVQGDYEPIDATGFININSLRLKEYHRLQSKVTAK

HOE 140
effect of B2 receptor blockade on the NOS activity increase caused by SEQ ID NO 8 [1]: not able to prevent the increase

ENWPHPQIPP [SEQ ID NO 7]
binding to the approx. 46 kDa protein (AsS) of mouse kidney extract [2]: bound
time from the peak until the [Ca2+]i plateau [3]: 20 s
[Ca2+]i response peak ([3]; immediately after addition of the peptide): ~250 nM

B1: oligopeptide SEQ ID NO 8 (peptide)
peptide: [pGlu]NWPHPQIPP
production rate of phosphate (enzymatic activity of the AsS) [4]: ~2.5 fold
